From PubChem BioAssay AID330 (DTP/NCI, 2004)
Values joined by “and” are separate entries in the source; they are usually repeats but may differ in a detail not shown here. Equal values may be shown once. Inconclusive results and toxic doses are left out.

Test system: P388 leukemia ip, CD2F1 mice, survival T/C
Test: NCI In Vivo Anticancer Drug Screen. Data for tumor model P388 Leukemia (intraperitoneal) in CD2F1 (CDF1) mice
Settings: endpoint: median survival time, higher = longer survival
Outline: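 Mice carrying the transplanted tumor received test compound or vehicle. Survival was recorded in each group, and the value is the treated-group measurement divided by that of the vehicle-treated control group.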

[1] = dose: 100.0 mg/kg/injection, schedule: Q04DX003 (ip), vehicle: Klucel (hydroxypropylcellulose) (HPC)
[2] = dose: 200.0 mg/kg/injection, schedule: Q04DX003 (ip), vehicle: Klucel (hydroxypropylcellulose) (HPC)
[3] = dose: 400.0 mg/kg/injection, schedule: Q04DX003 (ip), vehicle: Klucel (hydroxypropylcellulose) (HPC)
[4] = dose: 50.0 mg/kg/injection, schedule: Q01DX005 (ip), vehicle: Klucel (hydroxypropylcellulose) (HPC)
[5] = dose: 100.0 mg/kg/injection, schedule: Q01DX005 (ip), vehicle: Klucel (hydroxypropylcellulose) (HPC)
[6] = dose: 200.0 mg/kg/injection, schedule: Q01DX005 (ip), vehicle: Klucel (hydroxypropylcellulose) (HPC)
[7] = dose: 100.0 mg/kg/injection, schedule: Q04DX002 (ip), vehicle: saline with Tween-80
[8] = dose: 200.0 mg/kg/injection, schedule: Q04DX002 (ip), vehicle: saline with Tween-80
[9] = dose: 100.0 mg/kg/injection, schedule: Q01DX009 (ip), vehicle: saline with Tween-80
[10] = dose: 200.0 mg/kg/injection, schedule: Q01DX009 (ip), vehicle: saline with Tween-80
[11] = dose: 400.0 mg/kg/injection, schedule: Q01DX009 (ip), vehicle: saline with Tween-80
[12] = dose: 100.0 mg/kg/injection, schedule: Q01DX009 (ip), vehicle: saline
[13] = dose: 200.0 mg/kg/injection, schedule: Q01DX009 (ip), vehicle: saline

CN(C)C(C#C[Si](C)(C)C)C1(O)CCCCC1 (centres undefined)
T/C (dose: 100.0 mg/kg/injection, schedule: Q04DX003 (ip), vehicle: saline): 103 % of control
T/C (dose: 200.0 mg/kg/injection, schedule: Q04DX003 (ip), vehicle: saline): 105 % of control
T/C (dose: 400.0 mg/kg/injection, schedule: Q04DX003 (ip), vehicle: saline): 103 % of control

CCN(CC)Cc1cc(N2C(=O)CC3(CCCC3)C2=O)ccc1O
T/C [1]: 100 % of control
T/C [2]: 102 % of control
T/C [3]: 105 % of control

CCCCNC1=CC(=O)C(NCCCC)=CC1=O
T/C [4]: 100 % of control
T/C [5]: 101 % of control
T/C [6]: 98 % of control

Cc1c2oc3c(C)ccc(C(=O)NC(C(=O)NC(C(=O)N(C)C)C(C)C)C(C)O)c3nc-2c(C(=O)NC(C(=O)NC(C(=O)N(C)C)C(C)C)C(C)O)c(N)c1=O (centres undefined)
T/C (dose: 0.05 mg/kg/injection, schedule: Q01DX009 (ip), vehicle: water): 101 % of control
T/C (dose: 0.1 mg/kg/injection, schedule: Q01DX009 (ip), vehicle: water): 100 % of control
T/C (dose: 0.2 mg/kg/injection, schedule: Q01DX009 (ip), vehicle: water): 100 % of control
T/C (dose: 0.4 mg/kg/injection, schedule: Q01DX009 (ip), vehicle: water): 108 % of control
T/C (dose: 0.8 mg/kg/injection, schedule: Q01DX009 (ip), vehicle: water): 110 % of control
T/C (dose: 1.6 mg/kg/injection, schedule: Q01DX009 (ip), vehicle: water): 99 % of control and 106 % of control
T/C (dose: 3.2 mg/kg/injection, schedule: Q01DX009 (ip), vehicle: water): 101 % of control
T/C (dose: 6.4 mg/kg/injection, schedule: Q01DX009 (ip), vehicle: water): 101 % of control
T/C (dose: 12.8 mg/kg/injection, schedule: Q01DX009 (ip), vehicle: water): 106 % of control

C=C1C(=O)OC2CC(C)CCC/C(CO)=C/C(OC(=O)/C(=C/CO)CO)C12 (centres undefined)
T/C (dose: 7.0 mg/kg/injection, schedule: Q01DX005 (ip), vehicle: saline): 98 % of control
T/C (dose: 14.0 mg/kg/injection, schedule: Q01DX005 (ip), vehicle: saline): 101 % of control
T/C (dose: 28.0 mg/kg/injection, schedule: Q01DX005 (ip), vehicle: saline): 114 % of control

COC(=O)c1ccc(C(=S)OC)cc1
T/C [7]: 108 % of control
T/C [8]: 100 % of control
T/C (dose: 400.0 mg/kg/injection, schedule: Q04DX002 (ip), vehicle: saline with Tween-80): 101 % of control

OCc1c(Cl)n(-c2ccccc2)c2ccccc12
T/C (dose: 100.0 mg/kg/injection, schedule: Q04DX002 (ip), vehicle: Klucel (hydroxypropylcellulose) (HPC)): 96 % of control
T/C (dose: 400.0 mg/kg/injection, schedule: Q04DX002 (ip), vehicle: Klucel (hydroxypropylcellulose) (HPC)): 98 % of control

O=C(O)CC1CC=CCC1CC(=O)O (centres undefined)
T/C (dose: 100.0 mg/kg/injection, schedule: Q01DX001 (ip), vehicle: saline sonified): 100 % of control
T/C (dose: 200.0 mg/kg/injection, schedule: Q01DX001 (ip), vehicle: saline sonified): 100 % of control
T/C (dose: 400.0 mg/kg/injection, schedule: Q01DX001 (ip), vehicle: saline sonified): 105 % of control

Cc1ccc([NH-])c([NH-])c1.[Cl][Pt+2][Cl]
T/C (dose: 1.56 mg/kg/injection, schedule: Q04DX002 (ip), vehicle: saline with Tween-80): 105 % of control and 108 % of control
T/C (dose: 3.12 mg/kg/injection, schedule: Q04DX002 (ip), vehicle: saline with Tween-80): 110 % of control
T/C (dose: 25.0 mg/kg/injection, schedule: Q04DX002 (ip), vehicle: saline with Tween-80): 150 % of control
T/C (dose: 50.0 mg/kg/injection, schedule: Q04DX002 (ip), vehicle: saline with Tween-80): 159 % of control

CC1OC(=O)C(C2OC2C)=CC1O (centres undefined)
T/C (dose: 50.0 mg/kg/injection, schedule: Q01DX005 (ip), vehicle: saline): 97 % of control
T/C (dose: 100.0 mg/kg/injection, schedule: Q01DX005 (ip), vehicle: saline): 105 % of control
T/C (dose: 200.0 mg/kg/injection, schedule: Q01DX005 (ip), vehicle: saline): 105 % of control

CCCCCCCC/C=C\CCCCCCCC(=O)OCCCCCCCCCCCC
T/C (dose: 6.25 mg/kg/injection, schedule: Q01DX012 (ip), vehicle: saline with Tween-80): 100 % of control
T/C (dose: 12.5 mg/kg/injection, schedule: Q01DX012 (ip), vehicle: saline with Tween-80): 104 % of control
T/C (dose: 50.0 mg/kg/injection, schedule: Q01DX012 (ip), vehicle: saline with Tween-80): 100 % of control
T/C (dose: 100.0 mg/kg/injection, schedule: Q01DX012 (ip), vehicle: saline with Tween-80): 98 % of control
T/C (dose: 200.0 mg/kg/injection, schedule: Q01DX012 (ip), vehicle: saline with Tween-80): 101 % of control
T/C (dose: 500.0 mg/kg/injection, schedule: Q01DX012 (ip), vehicle: saline with Tween-80): 106 % of control
T/C (dose: 872.0 mg/kg/injection, schedule: Q01DX012 (ip), vehicle: saline with Tween-80): 97 % of control

CCN(CC)CC(=O)c1ccc(O)c(O)c1
T/C (dose: 50.0 mg/kg/injection, schedule: Q01DX009 (ip), vehicle: saline with Tween-80): 91 % of control
T/C [9]: 98 % of control and 106 % of control
T/C [10]: 112 % of control and 123 % of control
T/C [11]: 116 % of control and 117 % of control

COC(=O)Nc1ccc(C(=O)c2ccccc2)cc1
T/C (dose: 50.0 mg/kg/injection, schedule: Q01DX009 (ip), vehicle: saline): 98 % of control
T/C [12]: 99 % of control
T/C [13]: 93 % of control

COCC1(C)CCCC2(C)C3=C(CCC(=O)C3)CCC12 (centres undefined)
T/C [1]: 99 % of control
T/C [2]: 101 % of control
T/C [3]: 96 % of control

CC12CC[C]([Hg][I])(CC1)C2(C)C
T/C (dose: 6.25 mg/kg/injection, schedule: Q01DX009 (ip), vehicle: saline with Tween-80): 105 % of control
T/C (dose: 12.5 mg/kg/injection, schedule: Q01DX009 (ip), vehicle: saline with Tween-80): 112 % of control
T/C (dose: 25.0 mg/kg/injection, schedule: Q01DX009 (ip), vehicle: saline with Tween-80): 107 % of control

O=C(O)Cc1cn2ccncc2n1
T/C (dose: 100.0 mg/kg/injection, schedule: Q01DX001 (ip), vehicle: Klucel (hydroxypropylcellulose) (HPC)): 90 % of control
T/C (dose: 200.0 mg/kg/injection, schedule: Q01DX001 (ip), vehicle: Klucel (hydroxypropylcellulose) (HPC)): 101 % of control
T/C (dose: 400.0 mg/kg/injection, schedule: Q01DX001 (ip), vehicle: Klucel (hydroxypropylcellulose) (HPC)): 101 % of control

OC1CN(c2ccccc2)CC1O (centres undefined)
T/C [4]: 105 % of control
T/C [5]: 96 % of control
T/C [6]: 97 % of control

Cc1cc(=O)n2[nH]c(-c3ccc(Cl)cc3)nc2n1
T/C (dose: 50.0 mg/kg/injection, schedule: Q01DX009 (ip), vehicle: Klucel (hydroxypropylcellulose) (HPC)): 106 % of control
T/C (dose: 100.0 mg/kg/injection, schedule: Q01DX009 (ip), vehicle: Klucel (hydroxypropylcellulose) (HPC)): 103 % of control
T/C (dose: 200.0 mg/kg/injection, schedule: Q01DX009 (ip), vehicle: Klucel (hydroxypropylcellulose) (HPC)): 100 % of control

COCCOCCOCCOCCOCCOCCOCCOC(=O)Nc1ccc(C)c(NC(=O)OCCOCCOCCOCCOCCOCCOCCOC)c1
T/C [12]: 109 % of control
T/C [13]: 109 % of control
T/C (dose: 400.0 mg/kg/injection, schedule: Q01DX009 (ip), vehicle: saline): 95 % of control

O/N=c1/ccn(O)c2ccccc12
T/C (dose: 0.78 mg/kg/injection, schedule: Q01DX009 (ip), vehicle: saline): 161 % of control
T/C (dose: 1.56 mg/kg/injection, schedule: Q01DX009 (ip), vehicle: saline): 171 % of control
T/C (dose: 3.12 mg/kg/injection, schedule: Q01DX009 (ip), vehicle: saline): 204 % of control

CC(=O)[C@H]1CC[C@H]2[C@@H]3C[C@H](C)C4=CC(=O)CC[C@]4(C)[C@H]3C(=O)C[C@]12C
T/C [9]: 100 % of control
T/C [10]: 109 % of control
T/C [11]: 104 % of control

CC(=O)OC1CC(OC(C)=O)C2(C)CC3=C(O)C(=O)OC3CC(C)C12 (centres undefined)
T/C [7]: 97 % of control
T/C [8]: 101 % of control

CCOC(=O)c1ccc(N=Cc2cccc([N+](=O)[O-])c2)cc1
T/C (dose: 60.0 mg/kg/injection, schedule: Q01DX005 (ip), vehicle: saline with Tween-80): 91 % of control
T/C (dose: 120.0 mg/kg/injection, schedule: Q01DX005 (ip), vehicle: saline with Tween-80): 89 % of control
T/C (dose: 240.0 mg/kg/injection, schedule: Q01DX005 (ip), vehicle: saline with Tween-80): 90 % of control
